Drawing on PubChem BioAssay (NCI), this text covers TGI and GI50 for 27 compounds.

Holding throughout (assay): DTP human tumour cell line panel, 48 h
Test [1] deals with SN12C renal.
Test [2] deals with UACC-257 melanoma.
Test [3] has as its system UO-31 renal.
In test [4] the test system is SR leukemia.
Test [5] concerns OVCAR-4 ovarian.
Test [6] has as its system SF-539 CNS.
For test [7], the system named is IGROV1 ovarian.
Test [8] deals with CCRF-CEM leukemia.
Test [9] has as its system MALME-3M melanoma.
Test [10] deals with HS 578T breast.

Values joined by “and” are separate entries in the source; they are usually repeats but may differ in a detail not shown here. Equal values may be shown once.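 Cells were grown in 96-well plates and exposed to each compound for 48 hours at five concentrations; endpoints were interpolated linearly between bracketing concentrations, or set to the highest concentration if not reached. GI50: concentration for 50% inhibition of growth. TGI: concentration producing complete growth inhibition.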

Broadly, the TGI is the concentration giving total growth inhibition. A higher TGI goes with less potent growth arrest. In general, GI50 refers to the concentration at which growth is held to half of that of the control.

Consider `O=C(Cc1ccccc1)NS(=O)(=O)c1ccccc1`, for which the TGI in test [1], in [2], in test [3], in test [4], in test [5] and in test [6] was greater than 100 µM throughout. Further, the TGI in test [7], in test [8] and in [9] was greater than 100 µM throughout.
Consider `CCOC(=O)NC1CC2CCC1(OC)C=C2C` (configuration not stated), for which the total growth inhibition concentration (TGI) in test [1], in [2], in [3], in test [4], in [5] and in test [6] was greater than 100 µM in each case. The total growth inhibition concentration (TGI) in [7], in test [8] and in [9] was greater than 100 µM in each case.
With `Cn1sc2ccccc2c1=S`, the TGI in test [1] turned out to be 18.2 µM; in test [2], 21.3 µM; in [3], 28.7 µM; in [4] it was 38.7 µM; in test [5], 19.4 µM; in [6], 16.4 µM. The TGI in test [7] was found to be 31.7 µM; in [8], 14.8 µM; in [9], 22.9 µM.
With `O=NN(CCCl)C(=O)N[C@H]1CCCC[C@@H]1Cl`, the total growth inhibition concentration (TGI) in test [1] is greater than 100 µM; in [3], greater than 100 µM; in test [4] it was 17 µM; in test [5], greater than 100 µM; in test [6] it was greater than 100 µM; in [7], greater than 100 µM. In addition, the TGI was 43.7 µM in test [8] and greater than 100 µM in test [9].
In the case of `COC1CC(OC)C(O)C(CO)O1` (configuration not stated), the TGI in [1], in test [2], in test [3], in test [4], in test [5] and in test [6] was greater than 100 µM in each case. For the same compound, the TGI in test [7], in [8] and in test [9] was greater than 100 µM throughout.
For `CSC1(CC(=O)N2CCCCC2)C(=O)Nc2ccccc21` (configuration not stated), the concentration for total growth inhibition (TGI) in test [2], in test [3], in [5], in [6], in [10] and in test [7] was greater than 100 µM each time. Also, the TGI in [9] is greater than 100 µM.
For the compound `CC[CH2][Sn]([CH2]CC)([O]C(=O)Cc1ccc(F)cc1)[O][Sn]([CH2]CC)([CH2]CC)[O]C(=O)Cc1ccc(F)cc1`, the GI50 in test [1] is 0.262 µM; in [2], 0.204 µM; in test [3], 0.482 µM; in [4] it was 0.0781 µM; in test [5], 0.276 µM; in test [6], 0.274 µM. For the same compound, the GI50 was 0.718 µM in test [7] and 0.102 µM in test [9]. Further, the TGI amounted to 1 µM in test [1]; 0.869 µM in test [2]; 1.65 µM in test [3]; 5.03 µM in test [4]; 1.23 µM in [5]; 0.769 µM in [6]. Further, the results for the TGI in test [7], in test [8] and in test [9] were 2.04 µM, 1.12 µM and 0.291 µM, respectively.
As for `Cc1ccc(N2C(=O)C(Cl)=C(Cl)C2=O)cc1`, the TGI was 33.7 µM in test [1]; 63.9 µM in [2]; greater than 100 µM in test [3]; 54.2 µM in test [4]; 34.4 µM in [5]; 64.2 µM in test [6]. The total growth inhibition concentration (TGI) in test [7] came to 43.4 µM; in test [8], 23.4 µM; in test [9] it was 33.7 µM.
With `CCOC(=O)c1cc(OC(=O)CC)c2c(OC)ccc(OC)c2c1`, the TGI in test [1], in test [3], in [4], in [5], in test [6] and in [7] was greater than 100 µM throughout. In test [9], this compound returned a TGI greater than 100 µM.
Turning to `Fc1cccc(-c2[nH]nc3nc(Nc4cccnc4)sc23)c1`, the GI50 in test [1] is greater than 100 µM; in [2] it was greater than 100 µM; in test [3] it was 95.1 µM; in [4], 0.979 µM; in test [5], 16.1 µM; in [6], 3.02 µM. The results for the GI50 in test [7], in [8] and in [9] were 11.7 µM, 3.5 µM and 39.8 µM, respectively. The TGI in test [1], in test [2], in test [3], in [4], in test [5] and in test [6] was greater than 100 µM throughout. Further, the TGI in test [7], in test [8] and in [9] was greater than 100 µM in each case.
With `Cc1ccc(NC(=O)c2cc3ccccc3cc2O)c(C)c1.Cc1ccc(NC(=O)c2cc3ccccc3cc2[O-])c(C)c1.[Ni+2]`, the GI50 in test [1] was 3.12 µM; in [2], 2.94 µM; in [3] it was 3.79 µM; in test [5], 3.88 µM; in test [6] it was 4.75 µM; in test [10] it was 2.98 µM. Moreover, the GI50 in test [9] is 3.4 µM. Moreover, the concentration for total growth inhibition (TGI) amounted to 15.1 µM in test [1]; 7.85 µM in test [2]; 11.9 µM in test [3]; 25.4 µM in [5]; 53.2 µM in test [6]; 9.38 µM in test [10]. The TGI in test [9] stood at 14.3 µM.
Take `CC(C)c1ccc2nc3ccc(C(=O)NCCN4CCN(c5ccccc5)CC4)cn3c(=O)c2c1`: the TGI in test [2], in [3], in test [5], in test [10], in test [7] and in test [8] was greater than 100 µM each time.
For the compound `C[CH2][Sn]([CH2]C)([O]C(=O)c1ccc(F)cc1)[O][Sn]([CH2]C)([CH2]C)[O]C(=O)c1ccc(F)cc1`, the GI50 in test [1] was 67.2 µM; in test [2] it was 41.1 µM; in [3], greater than 100 µM; in test [4], 41.1 µM; in [5] it was greater than 100 µM; in test [6], 67.5 µM. Besides, the GI50 was greater than 100 µM in test [7], 10.7 µM in test [8] and 16.9 µM in test [9]. Also, the TGI in test [1], in test [2], in [3], in test [4], in [5] and in test [6] was greater than 100 µM each time. The concentration for total growth inhibition (TGI) in [7] is greater than 100 µM; in [8], 57.6 µM; in test [9], 32 µM.
For `CCCN1C(=O)CNC(=O)c2[nH]cnc21`, the TGI in [1], in test [2], in [3], in [4], in test [6] and in [7] was greater than 100 µM in each case. The total growth inhibition concentration (TGI) in [8] and in [9] was greater than 100 µM in each case.
Turning to `Nc1nc(=Nc2ccccc2)ss1`, the concentration for total growth inhibition (TGI) in test [1], in test [2], in test [3], in test [4], in [5] and in test [6] was greater than 100 µM each time. Further, the total growth inhibition concentration (TGI) in test [7] and in test [9] was greater than 100 µM each time.
As for `CC1=CC(=O)c2ccc(C)cc2C1=O`, the total growth inhibition concentration (TGI) in test [1] was 36.6 µM; in test [2] it was 26.6 µM; in [3], 24.6 µM; in [5] it was 52.5 µM; in [6], 30 µM; in [10], greater than 100 µM. The TGI in [7] came out at 30.8 µM; in test [8] it was 12.4 µM.
Regarding `COC(=O)Cc1cc(=O)n2c([nH]c3ccccc32)c1C#N`, the TGI in test [1], in test [2], in [3], in [4], in [5] and in test [6] was greater than 100 µM throughout. Besides, the TGI in [7] and in test [9] was greater than 100 µM in each case.
Consider `CCCCCCCCCCCCC(CCCCCCCCCCCC)OP(=O)(O)O`, for which the TGI in test [1], in test [2], in test [3], in [4], in [5] and in [6] was greater than 100 µM in each case. The concentration for total growth inhibition (TGI) in [7], in test [8] and in test [9] was greater than 100 µM in each case.
Turning to `COc1ccc(C(c2cc3c(cc2O)OCO3)N2CCOCC2)cc1OC` (configuration not stated), the concentration for total growth inhibition (TGI) in test [1] is 22.3 µM; in test [2], 34.1 µM; in test [3], 25 µM; in [5], 29 µM; in [6], 28.3 µM; in test [10] it was 19.9 µM. Moreover, the total growth inhibition concentration (TGI) in test [7] is 29.6 µM; in test [9], 25.7 µM.
Consider `C/C=C/C1=CN2C(=O)c3cc(OC4OC(C)C(NC)C(C)(O)C4O)c(C)c(O)c3N=C[C@@H]2C1` (some centres not stated), for which the figures for the total growth inhibition concentration (TGI) in [1], in test [5] and in test [8] were 1.21 µM, 20.7 µM and 41.5 µM, respectively. Besides, the concentration for 50% growth inhibition (GI50) is 0.0926 µM and < 0.01 µM in test [3]; 0.0253 µM and < 0.01 µM in test [4]; 0.0743 µM and < 0.01 µM in [6]; 0.0639 µM and < 0.01 µM in test [8].
Regarding `Cc1ccc(NC(=O)CC2C(=O)Nc3ccccc3S2=O)c(C)c1` (configuration not stated), the TGI is 96.7 µM in test [1]; greater than 100 µM in [2]; 45.3 µM in test [3]; 7.54 µM in test [4]; 41.6 µM in test [5]; 26.3 µM in test [6]. Further, the TGI was 42.1 µM in [7], 67 µM in test [8] and greater than 68.2 µM in [9].
`CC1=Nc2ccccc2C12C(c1ccccc1)C(c1ccccc1)C(=O)N1c3ccccc3CC12` (configuration not stated): the TGI in test [1], in test [2], in [3], in [4], in [5] and in test [6] was greater than 100 µM throughout. For the same compound, the TGI in [7] and in test [9] was greater than 100 µM throughout.
Consider `Cn1nc2ccccc2cc1=O`, for which the TGI in [1], in [2], in [3], in test [5], in test [6] and in test [7] was greater than 100 µM in each case. Further, the TGI in [8] and in [9] was greater than 100 µM each time.
For the compound `COC(C)(C)[C@H](O)C(O)CC(C)[C@@H]1CCC23CC12CCC1[C@@]2(C)CCC(OC(C)=O)C(C)(C)C2CC(OC2OC(COC(C)=O)C(O)C(O)C2O)[C@]13C` (some centres not stated), the GI50 is 6.29 µM in test [1]; 11.5 µM in test [2]; 7.01 µM in [5]; 5.66 µM in test [6]; 3.59 µM in test [7]; 4.08 µM in test [8]. In addition, the GI50 in test [9] was 12.8 µM. Besides, the concentration for total growth inhibition (TGI) in test [1] was 10.6 µM and 19.4 µM; in [2], 11.7 µM and 26 µM; in [3] it was 14.5 µM and 18.6 µM; in [5] it was 13.1 µM and 21.3 µM; in test [6] it was 9.41 µM and 17.2 µM; in test [7] it was 8.11 µM and 15 µM. Moreover, the TGI in test [8] is 9.67 µM and 17.3 µM; in test [9], 17.1 µM and 26 µM.
With `c1ccc2c(CNCCCCCCCCCCCCNCc3cccc4ccccc34)cccc2c1`, the concentration for total growth inhibition (TGI) was found to be 13.6 µM in test [1]; 3.17 µM in test [2]; 3.06 µM in test [3]; 2.69 µM in test [4]; 3.05 µM in test [5]; 3 µM in [6]. Moreover, the TGI came out at 3.39 µM in test [7], 3.2 µM in test [8] and 3.66 µM in [9].
Regarding `O=C(C=Nc1ccccc1C(=O)[O-])c1cccs1.O=C(C=Nc1ccccc1C(=O)[O-])c1cccs1.[Zn+2]`, the TGI in test [1] is greater than 10 µM; in test [2] it was 43 µM; in test [3], greater than 100 µM; in test [4] it was greater than 100 µM; in [6], greater than 100 µM; in test [7] it was 76 µM. For the same compound, the total growth inhibition concentration (TGI) in test [8] was 65.3 µM; in [9], greater than 10 µM.
Turning to `FC(F)(F)c1nc(-c2ccccc2)oc1Sc1oc(-c2ccccc2)nc1C(F)(F)F`, the TGI in test [1] is greater than 100 µM; in [2], greater than 100 µM; in test [3], greater than 100 µM; in test [4], greater than 100 µM; in [5], 90.2 µM; in [6], greater than 100 µM. The total growth inhibition concentration (TGI) in test [7], in [8] and in test [9] was greater than 100 µM each time.
